Measurements taken from patent US20260191817A1, “FIBROBLAST MODULATORS IN STROMA-RICH TUMORS” (UNIVERSITEIT GENT, priority 2022, published 2026).
Entries after “also recorded” stand apart in the source; their conditions may differ.

Tested on: 13B2 hTERT breast CAFs
Experiment: AFM spheroid stiffness, 13B2 hTERT breast CAFs
Type: cell-based, human
Settings: for Young's modulus / spheroid stiffness: 1 μM, 48 h during spheroid formation
From the text: It is well established that an increased tumor and ECM stiffness is associated with a negative prognosis as it promotes tumor growth, progression, therapy resistance, immunosuppression and metastasis. Stiffness is chiefly regulated by the action of the CAFs in the TME. Stiffness modulation is, therefore, a fitting read-out of activity in a screen for CAF modulators. To assess stiffness modulation, the stiffness of spheroids of CAF cells treated with test compounds was interrogated using atomic force microscopy (AFM) indentation and compared with untreated cells. AFM measurement of the stiffness (elasticity) of cells and spheroids is a technique well-known to those skilled in the art. AFM measures the force required to create a given deflection, this read-out is also known as the Young's modulus. AFM is widely used in biology and cancer research: altered physicochemical properties of live cells serve as a read-out of altered complex physiological processes.
U-shaped, 384-well ULA plates (cat. no. MS-9384UZ, S-bio) were seeded with a suspension of cell-specific culture media with cells. Cells were allowed to form spheroids for an appropriate time under treatment conditions before use in experiments. Cell culture dishes (cat. no. 734-2814, VWR) were filled with collagen gel and placed at 37° C. for an appropriate time to allow solidification. For each condition, spheroids were pooled in one cell culture dish. The medium was removed (stored at 37° C.) to promote attachment of the bottom of each spheroid to the collagen gel. The cell culture dishes were incubated at 37° C. After the incubation period, the stored medium was carefully (prevent detachment of spheroids) added to the dishes.
Mechanical measurements were performed using an atomic force microscope. To indent the spheroids an in-house made colloidal probe was used. Force curves were collected using an appropriate setpoint and probe speed (depending on the stiffness of the spheroids). On each spheroid multiple force curves were collected. Collected curves were then processed using the JPK DP software. Young's modulus was extracted from the force curves. All experiments were performed in biological triplicate.
To generate 3D cultures mimicking the complexity and pathophysiology of in vivo tumors, spheroids were used (cfr. point 4). Spheroids are considered to better simulate cellular heterogeneity, nutrient and oxygen gradients, cell-cell interactions, cell-matrix interactions, gene expression profiles, stromal interactions, therapeutic responses, multicellular resistance, drug penetration and anti-apoptotic signaling.

SMILES	Young's modulus / spheroid stiffness, concentration range (30 nM-3 μM, 48 h)	Young's modulus / spheroid stiffness
COc1cc(C(=O)/C=C/c2ccc(F)cc2)cc(OC)c1OC [Compound A1, 3-(4-Fluorophenyl)-1-(3,4,5-trimethoxyphenyl)prop2-en-1-one]	dose-response behavior	significant decrease; also recorded: active
COc1cc2oc(-c3ccc(F)cc3)cc(=O)c2c(OC)c1OC [Compound B1, 2-(4-Fluorophenyl)-5,6,7-trimethoxy-4H-chromen-4-one]	–	significant decrease; also recorded: active
